Test results from ChEMBL document CHEMBL1130366, “Search for surrogates: A study of endothelin receptor antagonist structure activity relationships” (Bioorg Med Chem Lett, 1997).

How the values were obtained:
[1] = molecular target: T1, Endothelin receptor type B (Homo sapiens, UniProt P24530); assay: Inhibition of I-ET-1 binding to human Endothelin B receptor
T1 sequence (P24530 whole entry): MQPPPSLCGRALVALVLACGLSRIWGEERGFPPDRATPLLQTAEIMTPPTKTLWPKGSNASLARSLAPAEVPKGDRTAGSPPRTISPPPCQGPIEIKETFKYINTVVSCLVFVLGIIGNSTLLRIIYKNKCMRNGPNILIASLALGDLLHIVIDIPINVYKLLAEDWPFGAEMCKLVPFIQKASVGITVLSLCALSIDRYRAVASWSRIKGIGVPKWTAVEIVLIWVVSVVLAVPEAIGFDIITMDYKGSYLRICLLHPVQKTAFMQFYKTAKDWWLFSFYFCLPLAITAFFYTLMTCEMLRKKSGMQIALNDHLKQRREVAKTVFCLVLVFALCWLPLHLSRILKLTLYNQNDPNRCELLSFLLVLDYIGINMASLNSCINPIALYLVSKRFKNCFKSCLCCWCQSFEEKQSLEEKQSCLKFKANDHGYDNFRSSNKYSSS

Endothelin-1 receptor = molecular target: T2, Endothelin-1 receptor (Homo sapiens, UniProt P25101); assay: Inhibition of I-ET-1 binding to human Endothelin A receptor
T2 sequence (P25101 whole entry): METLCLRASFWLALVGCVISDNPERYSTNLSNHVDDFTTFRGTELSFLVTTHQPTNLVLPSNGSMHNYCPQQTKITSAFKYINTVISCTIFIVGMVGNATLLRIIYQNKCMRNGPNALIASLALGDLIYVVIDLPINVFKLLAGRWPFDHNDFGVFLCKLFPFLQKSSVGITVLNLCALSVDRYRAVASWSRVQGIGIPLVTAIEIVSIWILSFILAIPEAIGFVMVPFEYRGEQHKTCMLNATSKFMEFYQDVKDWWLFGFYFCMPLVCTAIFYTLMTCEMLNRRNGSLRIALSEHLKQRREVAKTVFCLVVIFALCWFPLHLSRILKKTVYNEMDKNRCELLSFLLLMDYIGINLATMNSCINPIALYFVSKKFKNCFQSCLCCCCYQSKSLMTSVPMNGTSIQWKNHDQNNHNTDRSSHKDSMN

Compound	IC50 [1]	IC50 (Endothelin-1 receptor)
Cc1ccc(OCc2sccc2S(=O)(=O)Nc2onc(C)c2Br)cc1	15600 nM	–
Cc1ccc(OCc2ccsc2S(=O)(=O)Nc2onc(C)c2Br)c(C)c1	7270 nM	–
CCCc1cc2c(cc1OCc1ccsc1S(=O)(=O)Nc1onc(C)c1Br)OCO2	1300 nM	134 nM
Cc1noc(NS(=O)(=O)c2ccsc2COc2ccc3c(c2)OCO3)c1Br	5930 nM	299 nM
Cc1cc(C)c(OCc2sccc2S(=O)(=O)Nc2onc(C)c2Br)c(C)c1	3070 nM	62 nM

The remaining lines, values ahead:

IC50 [1]	IC50 (Endothelin-1 receptor)	Compound
335 nM	104 nM	CCCc1cc2c(cc1OCc1sccc1S(=O)(=O)Nc1onc(C)c1Br)OCO2
9550 nM	513 nM	Cc1noc(NS(=O)(=O)c2sccc2COc2ccc3c(c2)OCO3)c1Br
765 nM	129 nM	Cc1noc(NS(=O)(=O)c2ccsc2COc2cc3c(cc2Cl)OCO3)c1Br
4280 nM	54 nM	Cc1cc(C)c(OCc2ccsc2S(=O)(=O)Nc2onc(C)c2Br)c(C)c1
